Laboratory results taken from ChEMBL document CHEMBL5715954, “Silencing c-Myc translation as a therapeutic strategy through targeting PI3Kδ and CK1ε in hematological malignancies” (Blood, 2017).

Assays:
Parameters in all cases: scale not given: the % may be the effect or the level left
[1] = molecular target: Fibroblast growth factor receptor 2 (Homo sapiens) (UniProt P21802); assay: Inhibition of human FGFR2 assessed as enzyme activity at 1 uM using poly[Glu:Tyr] (4:1) as substrate preincubated for 20 mins followed by [gamma-33P]-ATP addition and measured after 120 mins by radiometric Hot-SpotSM Kinase assay relative to control
Fibroblast growth factor receptor 2 (Homo sapiens), sequence (P21802 22-821 limits assumed): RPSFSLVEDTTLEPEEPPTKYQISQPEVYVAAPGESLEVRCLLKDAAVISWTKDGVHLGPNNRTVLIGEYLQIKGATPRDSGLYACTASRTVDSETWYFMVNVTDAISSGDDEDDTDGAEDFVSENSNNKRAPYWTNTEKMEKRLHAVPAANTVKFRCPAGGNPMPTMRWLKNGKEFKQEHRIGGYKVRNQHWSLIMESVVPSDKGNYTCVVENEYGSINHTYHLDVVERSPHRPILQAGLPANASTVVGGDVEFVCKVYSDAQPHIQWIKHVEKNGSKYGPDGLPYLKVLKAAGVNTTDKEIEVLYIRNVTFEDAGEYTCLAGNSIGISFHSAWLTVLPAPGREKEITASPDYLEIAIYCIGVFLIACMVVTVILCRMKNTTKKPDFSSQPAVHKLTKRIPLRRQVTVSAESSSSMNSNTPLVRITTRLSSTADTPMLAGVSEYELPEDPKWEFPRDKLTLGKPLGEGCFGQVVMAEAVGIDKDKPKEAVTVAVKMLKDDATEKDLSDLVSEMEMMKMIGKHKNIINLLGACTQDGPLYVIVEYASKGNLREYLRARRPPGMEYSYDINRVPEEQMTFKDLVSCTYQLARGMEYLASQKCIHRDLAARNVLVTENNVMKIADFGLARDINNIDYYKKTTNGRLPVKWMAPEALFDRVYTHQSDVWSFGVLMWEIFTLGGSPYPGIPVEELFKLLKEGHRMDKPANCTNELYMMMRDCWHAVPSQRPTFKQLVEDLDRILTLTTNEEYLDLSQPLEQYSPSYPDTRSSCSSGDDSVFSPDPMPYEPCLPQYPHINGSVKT

[2] = molecular target: Protein kinase C delta type (Homo sapiens) (UniProt Q05655); assay: Inhibition of human PKCd assessed as enzyme activity at 1 uM using ERMRPRKRQGSVRRRV as substrate preincubated for 20 mins followed by [gamma-33P]-ATP addition and measured after 120 mins by radiometric Hot-SpotSM Kinase assay relative to control
Protein kinase C delta type (Homo sapiens), sequence (Q05655 whole entry, looked up): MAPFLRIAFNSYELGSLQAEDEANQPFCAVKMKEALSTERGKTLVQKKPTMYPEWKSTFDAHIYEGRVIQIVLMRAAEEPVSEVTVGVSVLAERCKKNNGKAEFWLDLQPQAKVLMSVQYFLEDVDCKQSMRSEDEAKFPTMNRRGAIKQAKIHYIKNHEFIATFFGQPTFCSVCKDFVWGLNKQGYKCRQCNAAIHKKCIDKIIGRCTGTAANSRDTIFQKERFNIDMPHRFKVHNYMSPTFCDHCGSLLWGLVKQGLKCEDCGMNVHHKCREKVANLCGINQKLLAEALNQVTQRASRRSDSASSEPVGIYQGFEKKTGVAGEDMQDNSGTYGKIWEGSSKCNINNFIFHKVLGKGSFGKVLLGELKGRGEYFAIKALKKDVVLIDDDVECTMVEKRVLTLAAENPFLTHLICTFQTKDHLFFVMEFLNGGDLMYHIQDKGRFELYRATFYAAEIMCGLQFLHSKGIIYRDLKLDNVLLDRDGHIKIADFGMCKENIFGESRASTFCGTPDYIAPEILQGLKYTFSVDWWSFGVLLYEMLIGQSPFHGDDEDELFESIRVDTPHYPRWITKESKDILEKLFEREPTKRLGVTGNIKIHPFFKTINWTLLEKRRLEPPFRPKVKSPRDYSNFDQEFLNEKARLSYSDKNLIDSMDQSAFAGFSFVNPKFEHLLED

[3] = molecular target: Aurora kinase B (Homo sapiens) (UniProt Q96GD4); assay: Inhibition of human Aurora B assessed as enzyme activity at 1 uM using H-LRRASLG as substrate preincubated for 20 mins followed by [gamma-33P]-ATP addition and measured after 120 mins by radiometric Hot-SpotSM Kinase assay relative to control
Aurora kinase B (Homo sapiens), sequence (Q96GD4 whole entry): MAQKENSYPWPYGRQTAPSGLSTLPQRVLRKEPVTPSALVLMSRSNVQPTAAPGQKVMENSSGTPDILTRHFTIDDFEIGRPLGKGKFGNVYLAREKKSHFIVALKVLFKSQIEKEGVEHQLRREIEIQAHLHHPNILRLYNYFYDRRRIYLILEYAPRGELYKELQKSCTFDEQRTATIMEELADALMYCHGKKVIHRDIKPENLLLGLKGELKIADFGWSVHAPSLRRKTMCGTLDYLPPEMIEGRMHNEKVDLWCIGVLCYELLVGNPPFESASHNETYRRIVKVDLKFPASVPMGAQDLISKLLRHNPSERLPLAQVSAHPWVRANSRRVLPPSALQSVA

[4] = molecular target: Cyclin-dependent kinase 5/CDK5 activator 1 (Homo sapiens) (UniProt Q00535+Q15078); assay: Inhibition of human CDK5/p35 assessed as enzyme activity at 1 uM using RB Protein as substrate preincubated for 20 mins followed by [gamma-33P]-ATP addition and measured after 120 mins by radiometric Hot-SpotSM Kinase assay relative to control; format: protein-complex assay
Cyclin-dependent kinase 5/CDK5 activator 1 (Homo sapiens), sequence (Q00535 whole entry): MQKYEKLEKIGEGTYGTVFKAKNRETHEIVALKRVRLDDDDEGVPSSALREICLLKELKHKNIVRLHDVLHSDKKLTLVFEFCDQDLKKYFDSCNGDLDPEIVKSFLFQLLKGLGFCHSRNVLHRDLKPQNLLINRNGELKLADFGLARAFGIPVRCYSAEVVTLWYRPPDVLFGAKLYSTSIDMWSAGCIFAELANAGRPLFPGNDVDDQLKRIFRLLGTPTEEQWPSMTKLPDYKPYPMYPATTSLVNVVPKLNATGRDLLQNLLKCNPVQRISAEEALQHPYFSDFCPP
Cyclin-dependent kinase 5/CDK5 activator 1 (Homo sapiens), sequence (Q15078 99-307 partner limits assumed): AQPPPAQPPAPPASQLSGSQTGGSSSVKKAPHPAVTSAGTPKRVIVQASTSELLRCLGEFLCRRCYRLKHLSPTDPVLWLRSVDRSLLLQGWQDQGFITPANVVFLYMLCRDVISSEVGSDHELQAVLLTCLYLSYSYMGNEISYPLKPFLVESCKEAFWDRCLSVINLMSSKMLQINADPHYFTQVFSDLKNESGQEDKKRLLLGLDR

[5] = molecular target: Bone morphogenetic protein receptor type-1B (Homo sapiens) (UniProt O00238); assay: Inhibition of human ALK6 assessed as enzyme activity at 1 uM using casein as substrate preincubated for 20 mins followed by [gamma-33P]-ATP addition and measured after 120 mins by radiometric Hot-SpotSM Kinase assay relative to control
Bone morphogenetic protein receptor type-1B (Homo sapiens), sequence (O00238 whole entry): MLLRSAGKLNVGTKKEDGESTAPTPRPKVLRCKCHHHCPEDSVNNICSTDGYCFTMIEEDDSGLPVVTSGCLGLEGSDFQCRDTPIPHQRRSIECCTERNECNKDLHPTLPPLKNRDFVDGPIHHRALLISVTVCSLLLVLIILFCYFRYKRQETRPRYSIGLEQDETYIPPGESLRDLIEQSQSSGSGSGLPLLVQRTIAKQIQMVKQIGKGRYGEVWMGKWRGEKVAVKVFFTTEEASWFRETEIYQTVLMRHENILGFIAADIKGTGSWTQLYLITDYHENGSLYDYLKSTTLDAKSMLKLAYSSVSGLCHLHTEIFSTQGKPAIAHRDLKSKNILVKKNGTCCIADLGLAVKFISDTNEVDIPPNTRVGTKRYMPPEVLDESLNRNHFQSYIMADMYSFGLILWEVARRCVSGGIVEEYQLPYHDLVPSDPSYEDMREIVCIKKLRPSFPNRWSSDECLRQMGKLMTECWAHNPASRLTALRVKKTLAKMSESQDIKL

[6] = molecular target: Activin receptor type-1-like (Homo sapiens) (UniProt P37023); assay: Inhibition of human ALK1 assessed as enzyme activity at 1 uM using casein as substrate preincubated for 20 mins followed by [gamma-33P]-ATP addition and measured after 120 mins by radiometric Hot-SpotSM Kinase assay relative to control
Activin receptor type-1-like (Homo sapiens), sequence (P37023 whole entry): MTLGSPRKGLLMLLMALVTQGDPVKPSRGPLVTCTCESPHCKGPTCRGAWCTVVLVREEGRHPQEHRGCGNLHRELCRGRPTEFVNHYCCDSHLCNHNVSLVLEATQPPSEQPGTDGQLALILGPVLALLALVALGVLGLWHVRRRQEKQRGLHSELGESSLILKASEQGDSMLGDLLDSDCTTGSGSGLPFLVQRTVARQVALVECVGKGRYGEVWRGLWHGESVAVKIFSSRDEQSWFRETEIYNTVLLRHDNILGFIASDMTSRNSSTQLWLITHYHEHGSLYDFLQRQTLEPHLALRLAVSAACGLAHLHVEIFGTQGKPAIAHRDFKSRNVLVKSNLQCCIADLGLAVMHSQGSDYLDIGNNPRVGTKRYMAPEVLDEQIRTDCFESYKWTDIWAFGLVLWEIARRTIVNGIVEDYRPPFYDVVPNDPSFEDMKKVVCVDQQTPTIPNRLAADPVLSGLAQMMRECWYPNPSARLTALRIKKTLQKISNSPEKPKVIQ

[7] = molecular target: T1, Kinase suppressor of Ras 1 (Homo sapiens) (UniProt Q8IVT5); assay: Inhibition of human KSR1 assessed as enzyme activity at 1 uM using KRREILSRRPSYR as substrate preincubated for 20 mins followed by [gamma-33P]-ATP addition and measured after 120 mins by radiometric Hot-SpotSM Kinase assay relative to control
T1 sequence (whole entry): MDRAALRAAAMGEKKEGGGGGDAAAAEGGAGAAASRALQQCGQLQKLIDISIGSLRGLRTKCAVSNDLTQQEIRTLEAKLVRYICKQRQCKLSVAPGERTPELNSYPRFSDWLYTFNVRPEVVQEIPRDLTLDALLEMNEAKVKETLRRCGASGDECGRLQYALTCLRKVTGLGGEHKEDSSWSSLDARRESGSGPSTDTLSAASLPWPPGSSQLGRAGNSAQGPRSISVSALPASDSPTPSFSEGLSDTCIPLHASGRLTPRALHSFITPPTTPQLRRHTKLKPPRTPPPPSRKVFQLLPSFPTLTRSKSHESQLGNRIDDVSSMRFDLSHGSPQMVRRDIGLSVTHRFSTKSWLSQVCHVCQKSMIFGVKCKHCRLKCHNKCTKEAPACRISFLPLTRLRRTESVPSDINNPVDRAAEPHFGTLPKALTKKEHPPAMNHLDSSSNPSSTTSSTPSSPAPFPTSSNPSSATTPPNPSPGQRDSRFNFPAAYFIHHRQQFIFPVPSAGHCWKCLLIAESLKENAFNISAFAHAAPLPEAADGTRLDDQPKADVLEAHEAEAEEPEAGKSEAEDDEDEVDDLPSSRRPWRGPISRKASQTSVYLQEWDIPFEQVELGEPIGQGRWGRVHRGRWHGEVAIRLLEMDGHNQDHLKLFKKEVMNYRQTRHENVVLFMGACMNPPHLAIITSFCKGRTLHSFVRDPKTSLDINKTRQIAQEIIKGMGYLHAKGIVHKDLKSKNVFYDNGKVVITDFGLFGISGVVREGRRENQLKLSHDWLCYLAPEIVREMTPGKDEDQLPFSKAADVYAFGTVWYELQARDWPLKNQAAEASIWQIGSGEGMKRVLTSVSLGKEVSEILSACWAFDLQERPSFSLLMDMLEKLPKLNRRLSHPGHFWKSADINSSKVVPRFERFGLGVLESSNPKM

[8] = molecular target: T2, Tyrosine-protein kinase Tec (Homo sapiens) (UniProt P42680); assay: Inhibition of human TEC assessed as enzyme activity at 1 uM using poly[Glu:Tyr] (4:1) as substrate preincubated for 20 mins followed by [gamma-33P]-ATP addition and measured after 120 mins by radiometric Hot-SpotSM Kinase assay relative to control
T2 sequence (whole entry): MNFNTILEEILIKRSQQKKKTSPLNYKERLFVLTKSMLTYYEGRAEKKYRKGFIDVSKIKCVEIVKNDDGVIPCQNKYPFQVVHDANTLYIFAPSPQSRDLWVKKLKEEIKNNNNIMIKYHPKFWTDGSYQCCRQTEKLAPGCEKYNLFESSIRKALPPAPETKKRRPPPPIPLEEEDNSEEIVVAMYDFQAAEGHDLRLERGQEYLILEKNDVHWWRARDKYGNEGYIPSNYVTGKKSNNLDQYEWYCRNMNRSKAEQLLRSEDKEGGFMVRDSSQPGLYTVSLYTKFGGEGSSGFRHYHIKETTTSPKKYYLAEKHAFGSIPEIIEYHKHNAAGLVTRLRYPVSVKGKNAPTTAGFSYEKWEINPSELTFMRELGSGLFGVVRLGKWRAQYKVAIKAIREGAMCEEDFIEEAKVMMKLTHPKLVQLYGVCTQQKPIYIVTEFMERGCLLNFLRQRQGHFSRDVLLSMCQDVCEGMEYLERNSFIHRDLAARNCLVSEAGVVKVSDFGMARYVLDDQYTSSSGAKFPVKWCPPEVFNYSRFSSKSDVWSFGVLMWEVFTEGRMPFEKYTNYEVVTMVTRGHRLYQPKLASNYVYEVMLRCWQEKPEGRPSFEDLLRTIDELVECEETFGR

[9] = molecular target: CDK6/cyclin D1 (Homo sapiens) (UniProt P24385+Q00534); assay: Inhibition of human CDK6/cyclin D1 assessed as enzyme activity at 1 uM using RB Protein as substrate preincubated for 20 mins followed by [gamma-33P]-ATP addition and measured after 120 mins by radiometric Hot-SpotSM Kinase assay relative to control; format: protein-complex assay

| SMILES | Activity [1] [%] | Activity [2] [%] | Activity [3] [%] | Activity [4] [%] | Activity [5] [%] | Activity [6] [%] | Activity [7] [%] | Activity [8] [%] | Activity [9] [%] |
| --- | --- | --- | --- | --- | --- | --- | --- | --- | --- |
| CC[C@H](Nc1ncnc2[nH]cnc12)c1nc2cccc(F)c2c(=O)n1-c1ccccc1 | 95.8 | 95.2 | 95.6 | 97.4 | 103 | 96.6 | 102 | 99.3 | 94.6 |
| C[C@H](Nc1ncnc2nc[nH]c12)c1cc2cccc(Cl)c2c(=O)n1-c1ccccc1 | 93.9 | 93.9 | 95.6 | 97.1 | 103 | 96.4 | 99.2 | 95.8 | 91.3 |
| CC(C)Oc1ccc(-c2nn([C@@H](C)c3oc4ccc(F)cc4c(=O)c3-c3cccc(F)c3)c3ncnc(N)c23)cc1F [UMBRALISIB] | 97.8 | 104 | 97.2 | 91.7 | 110 | 104 | 103 | 98.1 | 89.2 |
